Series [1] concerns Human immunodeficiency virus 1. The series can be described thus: Antiviral activity against wild type HIV-1 IIIB infected in human MT4 cells assessed as protection against virus-induced cytopathic effect incubated for 5 days by MTT assay. The series is classed as functional, organism-based. The note with it: Human immunodeficiency virus 1, IIIB, MT4, 120 h. A general note: Protection from cytopathic effect is a common read-out in antiviral testing.

The nature of series [2]: Selectivity index, ratio of CC50 for cytotoxicity against human MT4 cells to EC50 for antiviral activity against wild type HIV-1 IIIB infected in human MT4 cells. The series is classed as toxicity, cell-based. The conditions noted are these: read-out: Ratio CC50/EC50.
Series [3] is described as follows: Cytotoxicity against human MT4 cells assessed as reduction in cell viability incubated for 5 days by MTT assay. Format: toxicity, cell-based. The conditions noted are these: time 5 day. A general note: Tetrazolium dyes change colour on reduction, which living cells bring about.
The test system of series [4] is Human immunodeficiency virus 1. The series can be described thus: Antiviral activity against wild type HIV-1 IIIB harboring reverse transcriptase […] mutant infected in human MT4 cells assessed as protection against virus-induced cytopathic effect incubated for 5 days by MTT assay. The conditions noted are these: Human immunodeficiency virus 1, IIIB, MT4, 120 h. Format: functional, organism-based.

Series [5] is described as follows: Resistant factor, ratio of EC50 for antiviral activity against HIV-1 IIIB harboring reverse transcriptase […] mutant to EC50 for antiviral activity against wild type HIV-1 IIIB. The series is classed as functional.
Series [6] deals with Human immunodeficiency virus 1. Put plainly: Antiviral activity against wild type HIV-1 IIIB harboring reverse transcriptase K103N mutant infected in human MT4 cells assessed as protection against virus-induced cytopathic effect incubated for 5 days by MTT assay. Format: functional, organism-based. The conditions noted are these: Human immunodeficiency virus 1, IIIB, MT4, 120 h.

The nature of series [7]: Resistant factor, ratio of EC50 for antiviral activity against HIV-1 IIIB harboring reverse transcriptase K103N mutant to EC50 for antiviral activity against wild type HIV-1 IIIB. The series is classed as functional.
Series [8] concerns Human immunodeficiency virus 1. Put plainly: Antiviral activity against wild type HIV-1 IIIB harboring reverse transcriptase Y181C mutant infected in human MT4 cells assessed as protection against virus-induced cytopathic effect incubated for 5 days by MTT assay. Format: functional, organism-based. The note with it: Human immunodeficiency virus 1, IIIB, MT4, 120 h.
The nature of series [9]: Resistant factor, ratio of EC50 for antiviral activity against HIV-1 IIIB harboring reverse transcriptase Y181C mutant to EC50 for antiviral activity against wild type HIV-1 IIIB. Format: functional.
Series [10] concerns Human immunodeficiency virus 1. The series can be described thus: Antiviral activity against wild type HIV-1 IIIB harboring reverse transcriptase Y188L mutant infected in human MT4 cells assessed as protection against virus-induced cytopathic effect incubated for 5 days by MTT assay. Format: functional, organism-based. The conditions noted are these: Human immunodeficiency virus 1, IIIB, MT4, 120 h.

A short description of series [11]: Resistant factor, ratio of EC50 for antiviral activity against HIV-1 IIIB harboring reverse transcriptase Y188L mutant to EC50 for antiviral activity against wild type HIV-1 IIIB. Format: functional.
Series [12] has as its system Human immunodeficiency virus 1. The series can be described thus: Antiviral activity against wild type HIV-1 IIIB harboring reverse transcriptase E138K mutant infected in human MT4 cells assessed as protection against virus-induced cytopathic effect incubated for 5 days by MTT assay. The series is classed as functional, organism-based. The conditions noted are these: Human immunodeficiency virus 1, IIIB, MT4, 120 h.

Series [13] in a line: Resistant factor, ratio of EC50 for antiviral activity against HIV-1 IIIB harboring reverse transcriptase E138K mutant to EC50 for antiviral activity against wild type HIV-1 IIIB. The series is classed as functional.
For series [14], the target named is Human immunodeficiency virus type 1 reverse transcriptase (Human immunodeficiency virus 1, UniProt Q72547). The series can be described thus: Inhibition of recombinant wild type HIV-1 reverse transcriptase using DNA/RNA as substrate incubated for 40 mins by Pico-green dye based spectrofluorometric analysis.

The term EC50 denotes the concentration that produces a half-maximal response. As a reminder, the CC50 is the concentration at which the toxic effect on the cells reaches its halfway point. A word on the IC50: it is the concentration at which inhibition is half-maximal.

With `N#Cc1ccc(Nc2ncc(C(N)=O)c(Oc3ccc(-c4ccc(C#N)cc4)cc3Cl)n2)cc1`, the EC50 in [1] was found to be 102 nM; in series [4], 76000 nM; in [6], 5530 nM; in series [8] it was 129000 nM; in series [10], 219000 nM; in series [12], 821 nM. The selectivity ratio in series [2] was more than 2650. The 50% cytotoxic concentration (CC50) at 120 h in series [3] is more than 270000 nM. Further, the “Ratio EC50” value in series [5] amounted to 746; in [7] it was 54; in series [9], 1261; in series [11], 2150; in [13] it was 8. Besides, the IC50 in series [14] was determined as 28 nM.

Turning to `COCCNC(=O)c1cnc(Nc2ccc(C#N)cc2)nc1Oc1c(C)cc(-c2ccc(C#N)cc2)cc1C`, the concentration giving a half-maximal response (EC50) in series [1] was 5 nM; in [4], 74 nM; in series [6], 33 nM; in [8], 58 nM; in series [10], 190 nM; in series [12], 20 nM. Also, the selectivity ratio in [2] amounted to 28100. The CC50 at 120 h in [3] came out at 161000 nM. Besides, the “Ratio EC50” value in [5] turned out to be 13; in series [7] it was 5.8; in series [9], 10; in series [11] it was 33; in series [13] it was 3.5. In addition, in series [14], the IC50 was determined as 128 nM.

As to `CCCNC(=O)c1cnc(Nc2ccc(C#N)cc2)nc1Oc1c(C)cc(-c2ccc(C#N)cc2)cc1C`, the EC50 in series [1] was determined as 13 nM; in [4], 55 nM; in series [6], 31 nM; in series [8], 196 nM; in [10], 275 nM; in series [12] it was 39 nM. For the same molecule, in series [2], the selectivity ratio is 14700. The half-maximal cytotoxic concentration (CC50) at 120 h in series [3] is 86600 nM. Further, the “Ratio EC50” value stood at 4.2 in [5]; 2.4 in series [7]; 15 in series [9]; 21 in series [11]; 3 in series [13]. For the same molecule, the IC50 in [14] came out at 191 nM.

On to `N#Cc1ccc(Nc2nccc(Oc3ccc4cc(C#N)ccc4c3Br)n2)cc1`, for which the selectivity ratio in series [2] was found to be 181000. The CC50 at 120 h in [3] is 283000 nM.

Consider `Cc1cc(-c2ccc(C#N)cc2)cc(C)c1Oc1nc(Nc2ccc(C#N)cc2)ncc1C(=O)NC1CCCC1`, for which the EC50 in [1] turned out to be 145 nM; in series [4] it was 1780 nM; in series [6], 960 nM; in [8], 3350 nM; in series [10] it was 4650 nM; in [12], 573 nM. The selectivity ratio in series [2] was more than 1630. For the same molecule, the 50% cytotoxic concentration (CC50) at 120 h in [3] was more than 236000 nM. Besides, the “Ratio EC50” value is reported as 12 in [5]; 6.6 in series [7]; 23 in [9]; 32 in [11]; 4 in series [13]. Besides, the IC50 in [14] amounted to 329 nM.

As to `Cc1cc(-c2ccc(C#N)cc2)cc(C)c1Oc1nc(Nc2ccc(C#N)cc2)ncc1C(=O)NCC1CC1`, the half-maximal effective concentration (EC50) was determined as 102 nM in series [1]; 872 nM in series [4]; 445 nM in [6]; 1160 nM in series [8]; 1900 nM in series [10]; 248 nM in series [12]. The selectivity ratio in [2] came to 2060. In addition, the half-maximal cytotoxic concentration (CC50) at 120 h in [3] amounted to 210000 nM. In addition, the “Ratio EC50” value in series [5] is reported as 8.5; in [7], 4.4; in series [9] it was 11; in series [11] it was 19; in series [13] it was 2.4. The concentration for half-maximal inhibition (IC50) in [14] amounted to 294 nM.

As to `CCONC(=O)c1cnc(Nc2ccc(C#N)cc2)nc1Oc1c(C)cc(-c2ccc(C#N)cc2)cc1C`, the concentration for a half-maximal effect (EC50) in [1] stood at 5 nM; in [4], 34 nM; in [6] it was 12 nM; in [8], 46 nM; in series [10] it was 138 nM; in series [12], 7 nM. Besides, the selectivity ratio in [2] is more than 44200. Also, in series [3], the CC50 at 120 h was more than 248000 nM. Further, the “Ratio EC50” value is reported as 6.1 in series [5]; 2.1 in series [7]; 8.2 in [9]; 25 in series [11]; 1.3 in series [13]. In addition, the IC50 in [14] came out at 94 nM.

For `Cc1cc(-c2ccc(C#N)cc2)cc(C)c1Oc1nc(Nc2ccc(C#N)cc2)ncc1C(N)=O`, the EC50 in series [1] was 16 nM; in series [4], 22 nM; in series [6] it was 26 nM; in [8], 206 nM; in series [10] it was 150 nM; in series [12], 39 nM. Also, the selectivity ratio in series [2] was more than 2760. For the same molecule, the CC50 at 120 h in series [3] is more than 43400 nM. Also, the “Ratio EC50” value is reported as 1.4 in [5]; 1.6 in series [7]; 13 in series [9]; 9.4 in series [11]; 2.4 in series [13]. For the same molecule, in series [14], the IC50 was found to be 26 nM.

Consider `Cc1cc(/C=C/C#N)cc(C)c1Nc1ccnc(Nc2ccc(C#N)cc2)n1` [RILPIVIRINE], for which the concentration giving a half-maximal response (EC50) worked out at 2 nM in series [4], 1 nM in [6] and 4 nM in [8].

`Cc1cc(C#N)cc(C)c1Oc1nc(Nc2ccc(C#N)cc2)nc(N)c1Br` [ETRAVIRINE]: the half-maximal effective concentration (EC50) in series [1] turned out to be 6 nM; in series [4], 7 nM; in [6], 3 nM; in series [8], 12 nM; in series [10], 20 nM; in series [12], 7 nM. Also, in series [3], the CC50 at 120 h was more than 4610 nM.

With `O=C1Nc2ccc(Cl)cc2[C@@](C#CC2CC2)(C(F)(F)F)O1` [EFAVIRENZ], the EC50 in [1] worked out at 7 nM; in series [4], 44 nM; in series [6], 102 nM; in series [8] it was 7 nM; in series [10], 290 nM; in series [12], 6 nM. In [3], the CC50 at 120 h was more than 6340 nM.

As for `COc1cc(-c2ccc(C#N)cc2)ccc1Oc1nc(Nc2ccc(C#N)cc2)ncc1C(N)=O`, the EC50 is 18 nM in [1]; 6 nM in series [4]; 4 nM in series [6]; 136 nM in series [8]; 191 nM in [10]. For the same molecule, in [2], the selectivity ratio was more than 15300. Besides, in series [3], the cytotoxic concentration (CC50) at 120 h was more than 276000 nM. The “Ratio EC50” value in series [5] is 0.3; in [7], 0.2; in series [9] it was 7.6; in series [11], 11; in [13], 1. For the same molecule, the IC50 in [14] came out at 28 nM.

`Cc1cc(-c2ccc(C#N)cc2)cc(C)c1Oc1nc(Nc2ccc(C#N)cc2)ncc1C(=O)NCCCO`: the EC50 in series [1] is 5 nM; in series [4], 15 nM; in [6], 9 nM; in [8] it was 51 nM; in series [10], 50 nM. In series [2], the selectivity ratio stood at 5590. Also, the CC50 at 120 h in [3] came out at 31400 nM. Also, the “Ratio EC50” value in [5] is reported as 2.7; in series [7] it was 1.6; in [9] it was 9.1; in series [11], 8.9; in series [13] it was 0.9. Also, the IC50 in series [14] worked out at 71 nM.

`Cc1ccnc2c1NC(=O)c1cccnc1N2C1CC1` [NEVIRAPINE]: the half-maximal cytotoxic concentration (CC50) at 120 h in series [3] is more than 15000 nM. Moreover, the 50% effective concentration (EC50) in series [4] is 2100 nM; in series [6], more than 10100 nM; in series [8], more than 15900 nM; in series [10] it was more than 15900 nM; in [12], 210 nM.

The record behind these values is ChEMBL document CHEMBL5380843 (J Med Chem, 2023).
